Reference: publication PMC6272778, “New Lignans and Iridoid Glycosides from Dipsacus asper Wall” (Molecules, 2015)

Target: T1, HIV-1 integrase (Human immunodeficiency virus type 1 group M subtype B, UniProt P04585)
T1 construct: pre-incubated with 15 pmol integrase (IN) at 37 °C
Assay: HIV-1 integrase strand transfer inhibition assay (microplate, magnetic beads)
Assay type: biochemical, human immunodeficiency virus-1 (HIV-1)
Conditions: for HIV-1 integrase inhibition activity (in words): qualitative summary of the integrase assay; for IC50: strand transfer reaction, microplate screening method, positive control baicalein, read-out: IC50, inhibition activity against HIV-1 integrase
Method: The assays were performed in a 96-well microplate (Corning, New York, NY, USA) in a final volume of 50 μL. The wells were washed once with the reaction buffer (25 mM/L PIPES, pH 7.0, 10 mM/L β-mercaptoethanol, 5% (w/v) glycerol, 0.1 g/L bovin serum albumin (BSA), and 10 mM/L MnCl2). The compounds were diluted with dimethyl sulfoxide (DMSO) to a final concentration of 10% DMSO into the reaction volume (v/v) and pre-incubated with 15 pmol integrase (IN) at 37 °C in the reaction buffer in the absence of MnCl2 (10 mM/L) for 10 min. Subsequently, 1.5 pM donor DNA and 15 pM target DNA were added and the reaction was initiated. After incubation for 1 h at 37 °C, […] magnetic particles (6.7 × 10^8 beads/mL) and 51.5 μL binding buffer (10 mM/L Tris–HCl, pH 7.6, 2 M/LNaCl, 20 mM/L ethylene diamine tetraacetic acid (EDTA), and 0.1% [w/v] Tween 20) were added and incubated at 20 °C for 15 min. Then the wells holding the mixture were placed in a magnetic concentrator, the supernatant was discarded, and the wells were washed 3 times with phosphate buffered saline (PBS) containing 0.1% Tween20(PBST). Subsequently, 100 μL of 1:5000 diluted alkaline phosphatase (AP) conjugate anti-DIG antibody was added and incubated for 30 min at 37 °C. Finally, the wells were washed 3 times with PBST and the magnetic beads were transferred into fresh wells; 100 μL P-nitrophenyl phosphate (P-NPP) substrate (0.1 M/L Na2CO3, pH 9.5, 6.7 mM/L P-NPP, and 2 mM/L MgCl2) was added. The plates were read at 405 nm with a Model 680 microplate reader (Bio-Rad, Hercules, CA, USA). In the assay, baicalein was used as the positive control.
The IC50 values of the samples were calculated based on the assay results after curve fitting according to a non-linear regression.

Row | Structure (SMILES) | HIV-1 integrase inhibition activity (in words) | IC50 [µM]
1 | C=CC1C(OC2OC(CO)C(O)C(O)C2O)OC=C(C(=O)OC2CC3C(C(=O)OC)=COC(OC4OC(CO)C(O)C(O)C4O)C3C2C)C1CC1OC(C)C(C)O1 (stereo not drawn) [Compound 7, dipsanoside M] | weak HIV-1 integrase inhibitory activities | 84
2 | COc1cc([C@@H]2OC[C@@]3(O)[C@@H]2CO[C@H]3c2ccc(O)c(OC)c2)ccc1O [Compound 2, (+)-8-hydroxy-7,7'-bis-epi-pinoresinol] | weak HIV-1 integrase inhibitory activities | 61.7
3 | O=c1cc(-c2ccccc2)oc2cc(O)c(O)c(O)c12 [baicalein, reference compound] | – | 1.37
4 | C=CC1C(OC2OC(CO)C(O)C(O)C2O)OC=C(C(=O)OC2CC3C(C(=O)OC)=COC(OC4OC(CO)C(O)C(O)C4O)C3C2C)C1CC1OC(C)C(C)O1 (stereo not drawn) [Compound 8, dipsanosides N] | weak HIV-1 integrase inhibitory activities | 92.7
5 | COc1cc([C@@H]2OC[C@@]3(O)[C@@H]2CO[C@H]3c2cc(OC)c(O)c(OC)c2)ccc1O [Compound 1, (+)-8-hydroxy-7,7'-bis-epi-fraxiresinol] | weak HIV-1 integrase inhibitory activities | 53.3
